# Results reported in ChEMBL document CHEMBL4732189, “A facile synthesis of diaryl pyrroles led to the discovery of potent colchicine site antimitotic agents” (Eur J Med Chem, 2021).
# pIC50: −log10 of the molar value. Active and inactive are the calls of the source. No cut-off for these calls is given here.
# How the values were obtained:
# [1] = Inhibition of bovine brain tubulin polymerization incubated for 15 mins followed by GTP addition and measured after 20 mins by spectrophotometric method; type: tissue-based, Bos taurus
# [2] = tested on: SEM cells; assay: Antiproliferative activity against human SEM cells assessed as reduction in cell viability after 72 hrs by MTT assay; type: functional, cell-based
# [3] = organism: Bos taurus; assay: Displacement of [3H]colchicine from bovine brain tubulin at 5 uM by DEAE-cellulose filter method relative to control; type: tissue-based
# [4] = tested on: HeLa; assay: cells; conditions: Homo sapiens, 72 h
# Description: Antiproliferative activity against human HeLa cells assessed as reduction in cell viability after 72 hrs by MTT assay
# [5] = tested on: CCRF-CEM; assay: Antiproliferative activity against human CCRF-CEM cells assessed as reduction in cell viability after 72 hrs by MTT assay; type: functional, cell-based
# [6] = tested on: HT-29; assay: cells; conditions: Homo sapiens, HT-29, 72 h
# [7] = tested on: A549; assay: cells; conditions: Homo sapiens, A549, 72 h
# Description: Antiproliferative activity against human A549 cells assessed as reduction in cell viability after 72 hrs by MTT assay
# [8] = organism: Bos taurus; assay: Displacement of [3H]colchicine from bovine brain tubulin at 0.5 uM by DEAE-cellulose filter method relative to control; type: tissue-based
# [9] = tested on: HL-60; assay: Antiproliferative activity against human HL-60 cells assessed as reduction in cell viability after 72 hrs by MTT assay; type: functional, cell-based; conditions: HL-60, 72 h
# [10] = tested on: HeLa; assay: Induction of apoptosis in human HeLa cells assessed as decrease in cleaved Bcl-2 protein expression at 50 nM after 24 to 48 hrs by Western blot analysis; type: functional, cell-based; conditions: time 24-48 hrs
# [11] = tested on: HeLa; assay: Induction of cell cycle arrest in human HeLa cells assessed as decrease in cdc25c protein expression at 50 nM after 24 to 48 hrs by Western blot analysis; type: functional, cell-based; conditions: time 24-48 hrs
# [12] = tested on: HT-29; assay: Induction of cell cycle arrest in human HT-29 cells assessed as decrease in accumulation at G1 phase at 1 to 100 nM after 24 hrs by propidium iodide staining based flow cytometric analysis; type: functional; conditions: dose 1-100 nM
# [13] = tested on: HeLa; assay: Induction of apoptosis in human HeLa cells assessed as decrease in cleaved Mcl-1 protein expression at 50 nM after 24 to 48 hrs by Western blot analysis; type: functional, cell-based; conditions: time 24-48 hrs
# [14] = tested on: HT-29; assay: Induction of cell cycle arrest in human HT-29 cells assessed as increase in accumulation at G2/M phase after 24 hrs by propidium iodide staining based flow cytometric analysis; type: functional; conditions: dose 1-100 nM
# [15] = tested on: HeLa; assay: Induction of apoptosis in human HeLa cells at 50 nM after 24 to 48 hrs by annexinV-FITC/propidium iodide staining based flow cytometric analysis; type: functional, cell-based; conditions: time 24-48 hrs
# [16] = Toxicity in C57BL/6 mouse allografted with mouse EO771 cells assessed as reduction in body weight at 15 mg/kg, ip; type: organism-based; conditions: in vivo
# [17] = tested on: EO771; assay: Antitumour activity against mouse EO771 cells allografted in C57BL/6 mouse assessed as reduction in tumor volume at 5 mg/kg, ip; type: functional, organism-based
# [18] = tested on: PBL; assay: Cytotoxicity against human PBL cells assessed reduction in cell viability after 72 hrs by MTT assay; type: cell-based
# [19] = tested on: HeLa; assay: Induction of cell cycle arrest in human HeLa cells assessed as decrease in accumulation at S phase at 1 to 100 nM after 24 hrs by propidium iodide staining based flow cytometric analysis; type: functional; conditions: dose 1-100 nM
# [20] = tested on: HeLa; assay: Induction of ROS generation in human HeLa cells assessed as increase in DCF fluorescence at 50 nM after 24 to 48 hrs by H2-DCFDA staining based flow cytometric analysis; type: functional, cell-based; conditions: time 24-48 hrs
# [21] = tested on: EO771; assay: Antitumour activity against mouse EO771 cells allografted in ip dosed C57BL/6 mouse assessed as reduction in tumor mass; type: functional, organism-based; conditions: dose lower 5.0 mg/kg, dose upper […]
# [22] = tested on: PBL; assay: Cytotoxicity against PHA-induced human PBL cells assessed reduction in cell viability after 72 hrs by MTT assay; type: cell-based
# [23] = tested on: HeLa; assay: Induction of cell cycle arrest in human HeLa cells assessed as decrease in accumulation at G1 phase at 1 to 100 nM after 24 hrs by propidium iodide staining based flow cytometric analysis; type: functional; conditions: dose 1-100 nM
# [24] = molecular target: Cyclin-dependent kinase 1 (Homo sapiens) (UniProt P06493); assay: Inhibition of cdc2 phosphorylation at Y15 residues in human HeLa cells at 25 to 50 nM after 24 to 48 hrs by Western blot analysis; type: cell-based; conditions: dose 25-50 nM, time 24-48 hrs
# Cyclin-dependent kinase 1 (Homo sapiens), sequence (P06493 whole entry, looked up): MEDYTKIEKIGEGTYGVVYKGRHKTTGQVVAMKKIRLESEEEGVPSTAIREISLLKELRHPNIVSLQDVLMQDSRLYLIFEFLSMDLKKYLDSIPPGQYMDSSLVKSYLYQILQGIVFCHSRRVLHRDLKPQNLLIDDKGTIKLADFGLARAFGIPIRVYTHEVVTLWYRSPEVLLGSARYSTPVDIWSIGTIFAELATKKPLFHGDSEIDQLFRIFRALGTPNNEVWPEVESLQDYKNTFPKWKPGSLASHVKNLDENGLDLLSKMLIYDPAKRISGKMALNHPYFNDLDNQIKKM
# [25] = tested on: HT-29; assay: Induction of cell cycle arrest in human HT-29 cells assessed as decrease in accumulation at S phase at 1 to 100 nM after 24 hrs by propidium iodide staining based flow cytometric analysis; type: functional; conditions: dose 1-100 nM
# [26] = tested on: HeLa; assay: Induction of cell cycle arrest in human HeLa cells assessed as increase in cyclin B1 protein expression at 50 nM after 24 to 48 hrs by Western blot analysis; type: functional, cell-based; conditions: time 24-48 hrs
# [27] = tested on: HeLa; assay: Induction of apoptosis in human HeLa cells assessed as increase in cleaved PARP level at 25 nM after 24 hrs by Western blot analysis; type: functional, cell-based
# [28] = tested on: HeLa; assay: Induction of cell cycle arrest in human HeLa cells assessed as increase in accumulation at G2/M phase after 24 hrs by propidium iodide staining based flow cytometric analysis; type: functional; conditions: dose 1-100 nM
# [29] = tested on: HeLa; assay: Induction of apoptosis in human HeLa cells assessed as decrease in cleaved XIAP protein expression at 50 nM after 24 to 48 hrs by Western blot analysis; type: functional, cell-based; conditions: time 24-48 hrs
# [30] = tested on: KB; assay: Antiproliferative activity against human KB cells assessed as reduction in cell viability after 72 hrs by MTT assay; type: functional, cell-based
# [31] = tested on: SGC-7901; assay: Antiproliferative activity against human SGC-7901 cells assessed as reduction in cell viability after 72 hrs by MTT assay; type: functional, cell-based; conditions: SGC-7901, 72 h
# [32] = molecular target: Tubulin; assay: Inhibition of tubulin (unknown origin) polymerization incubated for 90 mins by fluorescence-based assay; type: protein-complex assay, Homo sapiens
# [33] = tested on: HT-1080; assay: Antiproliferative activity against human […] cells assessed as reduction in cell viability after 72 hrs by MTT assay; type: functional, cell-based; conditions: HT-1080, 72 h
Structure (SMILES),pIC50 [1],inhibition [3] [%],pIC50 [4],pIC50 [5],pIC50 [6],pIC50 [7],inhibition [8] [%],pIC50 [9],pIC50 [2],further results
CCOc1ccc(-c2cccn2-c2cc(OC)c(OC)c(OC)c2)cc1,5.25,63,6.41,5.72,6.41,5.34,,6.44,6.85,
CCOc1ccc(-c2cccn2-c2cc(OC)c(OC)c(OC)c2)cc1Cl,5.89,68,6.46,5.53,6.14,5.08,,6.41,7.00,
CCOc1ccc(-c2c[nH]cc2-c2cc(OC)c(OC)c(OC)c2)cc1,6.09,92,7.43,7.78,7.38,7.09,80,6.83,8.55,
CCOc1ccc(-c2c[nH]cc2-c2cc(OC)c(OC)c(OC)c2)cc1F,6.18,93,7.59,8.12,7.55,7.55,83,6.77,8.77,Activity [10]: Active; Activity [11]: Active; Activity [12]: Active; Activity [13]: Active; Activity [14]: Dose-dependent effect; Activity [15]: Active; Activity [16]: Non-Toxic; Activity [17]: Dose-dependent effect; pIC50 [18]: < 5.00; Activity [19]: Active; Activity [20]: Active; Activity [21]: Dose-dependent effect; pIC50 [22]: < 5.00; Activity [23]: Active; inhibition [24]: Active; Activity [25]: Active; Activity [26]: Active; Activity [27]: Active; Activity [28]: Dose-dependent effect; Activity [29]: Active
COc1ccc(-n2cccc2-c2cc(OC)c(OC)c(OC)c2)cc1N,,,,,,,,,,pIC50 [30]: 7.35; pIC50 [31]: 6.41; pIC50 [32]: 5.00; pIC50 [33]: 7.15
COc1cc(-n2cccc2-c2ccc(C)cc2)cc(OC)c1OC,5.80,60,5.49,5.61,5.41,5.02,,6.46,6.57,

# The next lines start with results.
pIC50 [1],inhibition [3] [%],pIC50 [4],pIC50 [5],pIC50 [6],pIC50 [7],inhibition [8] [%],pIC50 [9],Structure (SMILES),pIC50 [2],further results
6.15,90,7.43,6.82,7.19,7.10,68,6.84,CCOc1ccc(-c2c[nH]cc2-c2cc(OC)c(OC)c(OC)c2)cc1Cl,7.41,
5.59,64,5.21,5.77,5.39,5.05,,6.43,COc1ccc(-c2cccn2-c2cc(OC)c(OC)c(OC)c2)cc1F,6.70,
